Assay results: PubChem BioAssay (NCI)
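Step 1: Grow cells in 96-well plates. Step 2: Expose to compound for 48 hours at 5 concentrations. Step 3: Interpolate endpoints linearly; if unreached, use highest concentration. TGI marks complete inhibition of growth.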

Columns and labels:
Assay in all cases: NCI tumour cell line growth inhibition, 48 h
HL-60(TB) leukemia = tested on: HL-60(TB) leukemia
SF-539 CNS = tested on: SF-539 CNS
LOX IMVI melanoma = tested on: LOX IMVI melanoma
LXFL 529 NSCLC = tested on: LXFL 529 NSCLC
OVCAR-8 ovarian = tested on: OVCAR-8 ovarian
SF-268 CNS = tested on: SF-268 CNS
HCT-116 colon = tested on: HCT-116 colon
786-0 renal = tested on: 786-0 renal
SK-MEL-5 melanoma = tested on: SK-MEL-5 melanoma
TK-10 renal = tested on: TK-10 renal
KM12 colon = tested on: KM12 colon
SN12C renal = tested on: SN12C renal
SF-295 CNS = tested on: SF-295 CNS
SK-MEL-2 melanoma = tested on: SK-MEL-2 melanoma
CAKI-1 renal = tested on: CAKI-1 renal
M14 melanoma = tested on: M14 melanoma
SK-OV-3 ovarian = tested on: SK-OV-3 ovarian
UO-31 renal = tested on: UO-31 renal
U251 CNS = tested on: U251 CNS
A498 renal = tested on: A498 renal
UACC-257 melanoma = tested on: UACC-257 melanoma
RXF-631 renal = tested on: RXF-631 renal
OVCAR-5 ovarian = tested on: OVCAR-5 ovarian
HOP-62 NSCLC = tested on: HOP-62 NSCLC
M19-MEL melanoma = tested on: M19-MEL melanoma
ACHN renal = tested on: ACHN renal
CCRF-CEM leukemia = tested on: CCRF-CEM leukemia
NCI-H23 lung = tested on: NCI-H23 lung
HCC-2998 colon = tested on: HCC-2998 colon
COLO 205 colon = tested on: COLO 205 colon
SNB-75 CNS = tested on: SNB-75 CNS
DMS 273 small cell lung = tested on: DMS 273 small cell lung
OVCAR-4 ovarian = tested on: OVCAR-4 ovarian
HOP-18 NSCLC = tested on: HOP-18 NSCLC
HOP-92 NSCLC = tested on: HOP-92 NSCLC
K-562 leukemia = tested on: K-562 leukemia
XF 498 CNS = tested on: XF 498 CNS
RXF 393 renal = tested on: RXF 393 renal
SNB-78 CNS = tested on: SNB-78 CNS
SR leukemia = tested on: SR leukemia
NCI-H460 lung = tested on: NCI-H460 lung
HCT-15 colon = tested on: HCT-15 colon
IGROV1 ovarian = tested on: IGROV1 ovarian
RPMI-8226 leukemia = tested on: RPMI-8226 leukemia
SNB-19 CNS = tested on: SNB-19 CNS
EKVX NSCLC = tested on: EKVX NSCLC
HT29 colon = tested on: HT29 colon
SW-620 colon = tested on: SW-620 colon
MALME-3M melanoma = tested on: MALME-3M melanoma
MOLT-4 leukemia = tested on: MOLT-4 leukemia
UACC-62 melanoma = tested on: UACC-62 melanoma
OVCAR-3 ovarian = tested on: OVCAR-3 ovarian
DLD-1 colon = tested on: DLD-1 colon
A549 NSCLC = tested on: A549 NSCLC
DMS 114 small cell lung = tested on: DMS 114 small cell lung
MDA-MB-231 breast = tested on: MDA-MB-231 breast
DU-145 prostate = tested on: DU-145 prostate
SN12K1 renal = tested on: SN12K1 renal
HS 578T breast = tested on: HS 578T breast
PC-3 prostate = tested on: PC-3 prostate
T-47D breast = tested on: T-47D breast
KM20L2 colon = tested on: KM20L2 colon
NCI-H522 lung = tested on: NCI-H522 lung
MDA-MB-435 = tested on: MDA-MB-435
P388 leukemia = tested on: P388 leukemia
BT-549 breast = tested on: BT-549 breast
MDA-N = tested on: MDA-N
NCI-H226 lung = tested on: NCI-H226 lung
MCF7 breast = tested on: MCF7 breast
SK-MEL-28 melanoma = tested on: SK-MEL-28 melanoma
P388/ADR leukemia = tested on: P388/ADR leukemia
NCI/ADR-RES ovarian = tested on: NCI/ADR-RES ovarian

Cn1c(=O)c2c3oc(=O)cc(O)c3c(=O)n3c4ccccc4n(c1=O)c23
TGI (HL-60(TB) leukemia): 78.7 µM
TGI (SF-539 CNS): > 100 µM
TGI (LOX IMVI melanoma): 82.4 µM
TGI (LXFL 529 NSCLC): > 100 µM
TGI (OVCAR-8 ovarian): > 100 µM
TGI (SF-268 CNS): > 100 µM
TGI (HCT-116 colon): > 100 µM
TGI (786-0 renal): > 100 µM
TGI (SK-MEL-5 melanoma): 81 µM
TGI (TK-10 renal): > 100 µM
TGI (KM12 colon): > 100 µM
TGI (SN12C renal): > 100 µM
TGI (SF-295 CNS): > 100 µM
TGI (SK-MEL-2 melanoma): 69 µM
TGI (CAKI-1 renal): > 100 µM
TGI (M14 melanoma): > 100 µM
TGI (SK-OV-3 ovarian): > 100 µM
TGI (UO-31 renal): > 100 µM
TGI (U251 CNS): > 100 µM
TGI (A498 renal): > 100 µM
TGI (UACC-257 melanoma): 82.9 µM
TGI (RXF-631 renal): > 100 µM
TGI (OVCAR-5 ovarian): > 100 µM
TGI (HOP-62 NSCLC): > 100 µM
TGI (M19-MEL melanoma): > 100 µM
TGI (ACHN renal): > 100 µM
TGI (CCRF-CEM leukemia): > 100 µM
TGI (NCI-H23 lung): > 100 µM
TGI (HCC-2998 colon): > 100 µM
TGI (COLO 205 colon): 72.6 µM
TGI (SNB-75 CNS): 87.8 µM
TGI (DMS 273 small cell lung): > 100 µM
TGI (OVCAR-4 ovarian): > 100 µM
TGI (HOP-18 NSCLC): > 100 µM
TGI (HOP-92 NSCLC): 95.9 µM
TGI (K-562 leukemia): 65.8 µM
TGI (XF 498 CNS): 68 µM
TGI (RXF 393 renal): > 100 µM
TGI (SNB-78 CNS): > 100 µM
TGI (SR leukemia): > 100 µM
TGI (NCI-H460 lung): > 100 µM
TGI (HCT-15 colon): > 100 µM
TGI (IGROV1 ovarian): > 100 µM
TGI (RPMI-8226 leukemia): 91.5 µM
TGI (SNB-19 CNS): > 100 µM
TGI (EKVX NSCLC): > 100 µM
TGI (HT29 colon): > 100 µM
TGI (SW-620 colon): > 100 µM
TGI (MALME-3M melanoma): > 100 µM
TGI (MOLT-4 leukemia): > 100 µM
TGI (UACC-62 melanoma): > 100 µM
TGI (OVCAR-3 ovarian): 78.6 µM
TGI (DLD-1 colon): > 100 µM
TGI (A549 NSCLC): > 100 µM

COc1ccc(S(=O)(=O)N/N=C/C(=O)O)cc1
TGI (DMS 114 small cell lung): 1230 µM
TGI (HL-60(TB) leukemia): 463 µM
TGI (MDA-MB-231 breast): > 1250 µM
TGI (SF-539 CNS): 1080 µM
TGI (DU-145 prostate): 843 µM
TGI (LOX IMVI melanoma): 733 µM
TGI (SN12K1 renal): > 1250 µM
TGI (OVCAR-8 ovarian): 1100 µM
TGI (SF-268 CNS): 975 µM
TGI (HCT-116 colon): 1030 µM
TGI (786-0 renal): 971 µM
TGI (SK-MEL-5 melanoma): 894 µM
TGI (TK-10 renal): > 1250 µM
TGI (HS 578T breast): 1040 µM
TGI (PC-3 prostate): > 1250 µM
TGI (KM12 colon): > 1170 µM
TGI (T-47D breast): > 1250 µM
TGI (SN12C renal): 1140 µM
TGI (KM20L2 colon): > 1250 µM
TGI (SF-295 CNS): 1070 µM
TGI (NCI-H522 lung): 644 µM
TGI (SK-MEL-2 melanoma): 826 µM
TGI (CAKI-1 renal): 1230 µM
TGI (M14 melanoma): > 1250 µM
TGI (MDA-MB-435): > 1250 µM
TGI (P388 leukemia): 787 µM
TGI (BT-549 breast): 704 µM
TGI (SK-OV-3 ovarian): > 1250 µM
TGI (UO-31 renal): > 1250 µM
TGI (U251 CNS): 1200 µM
TGI (A498 renal): 1210 µM
TGI (MDA-N): > 1200 µM
TGI (NCI-H226 lung): > 1220 µM
TGI (UACC-257 melanoma): > 1250 µM
TGI (OVCAR-5 ovarian): > 1150 µM
TGI (HOP-62 NSCLC): 1130 µM
TGI (M19-MEL melanoma): > 1250 µM
TGI (ACHN renal): 970 µM
TGI (CCRF-CEM leukemia): 712 µM
TGI (NCI-H23 lung): 867 µM
TGI (HCC-2998 colon): > 1250 µM
TGI (MCF7 breast): > 1210 µM
TGI (COLO 205 colon): > 1250 µM
TGI (SNB-75 CNS): > 1250 µM
TGI (DMS 273 small cell lung): > 1200 µM
TGI (OVCAR-4 ovarian): > 1210 µM
TGI (HOP-18 NSCLC): > 1250 µM
TGI (SK-MEL-28 melanoma): > 1250 µM
TGI (HOP-92 NSCLC): 1110 µM
TGI (K-562 leukemia): > 1170 µM
TGI (XF 498 CNS): > 1080 µM
TGI (RXF 393 renal): 1150 µM
TGI (SNB-78 CNS): > 1250 µM
TGI (SR leukemia): 603 µM
TGI (NCI-H460 lung): > 1230 µM
TGI (HCT-15 colon): 1080 µM
TGI (IGROV1 ovarian): 1060 µM
TGI (RPMI-8226 leukemia): 887 µM
TGI (SNB-19 CNS): > 1250 µM
TGI (EKVX NSCLC): > 1250 µM
TGI (P388/ADR leukemia): 721 µM
TGI (HT29 colon): > 580 µM
TGI (SW-620 colon): 1230 µM
TGI (MALME-3M melanoma): > 1250 µM
TGI (NCI/ADR-RES ovarian): 1030 µM
TGI (MOLT-4 leukemia): 694 µM
TGI (UACC-62 melanoma): 984 µM
TGI (OVCAR-3 ovarian): 1160 µM
TGI (DLD-1 colon): > 1250 µM
TGI (A549 NSCLC): > 1250 µM

CCN(CC)c1ccc(C(=C2C=CC(=[N+](CC)CC)C=C2)c2ccc(N(CC)CC)cc2)cc1
TGI (DMS 114 small cell lung): 0.787 µM
TGI (HCT-116 colon): 1.31 µM
TGI (SK-MEL-5 melanoma): 0.237 µM
TGI (TK-10 renal): 1.45 µM
TGI (KM12 colon): 1.18 µM
TGI (SF-295 CNS): 1.11 µM
TGI (SK-MEL-2 melanoma): 0.687 µM
TGI (SK-OV-3 ovarian): 0.624 µM
TGI (UO-31 renal): 0.724 µM
TGI (U251 CNS): 1.31 µM
TGI (MDA-N): 1.16 µM
TGI (UACC-257 melanoma): 1.01 µM
TGI (RXF-631 renal): 1.18 µM
TGI (OVCAR-5 ovarian): 1.06 µM
TGI (HOP-62 NSCLC): 1.58 µM
TGI (M19-MEL melanoma): 1.31 µM
TGI (ACHN renal): 0.348 µM
TGI (COLO 205 colon): 0.503 µM
TGI (SNB-75 CNS): 1.44 µM
TGI (DMS 273 small cell lung): 1.15 µM
TGI (SK-MEL-28 melanoma): 1.82 µM
TGI (XF 498 CNS): 0.0815 µM
TGI (RXF 393 renal): 1.04 µM
TGI (SR leukemia): 0.582 µM
TGI (IGROV1 ovarian): 1.18 µM
TGI (SNB-19 CNS): 1.79 µM
TGI (EKVX NSCLC): 1.54 µM
TGI (MALME-3M melanoma): 0.588 µM
TGI (MOLT-4 leukemia): 1.78 µM
TGI (UACC-62 melanoma): 1.52 µM
